pEC50: −log10 of the molar value.
These compounds were tested against T1, GPR40 of human origin (Homo sapiens, UniProt O14842) (assay: Agonist action on GPR40 of human origin (intracellular Ca2+ change)). Details: CHO cell strain stably expressing GPR40 of human origin; change in Ca2+ concentration, fluorescent calcium indicator.
T1 construct: expressed in transfected cells
Format: cell-based
Experimental: Pharmacological Test Example 1: Agonist Action on GPR40 of Human Origin
A CHO cell strain stably expressing GPR40 of human origin was used to determine the agonist action of a subject compound. This cell strain was seeded in a clear bottom 96 well plate at 4×10^4 cells/100 pt/well. The cell strain iswas cultured in a CO2 incubator overnight using a Ham's F-12 medium containing a 10% fetal bovine serum, 100 U/mL penicillin, 0.1 mg/mL streptomycin, and 400 μg/mL Geneticin. Calcium 4 Assay Kit (Molecular Devices) was used as a fluorescent calcium indicator. One mL of 77 mg/mL probenecid (Invitrogen) was added to 100 mL of a calcium indicator solution to prepare a solution (loading solution) mixed with a 20 mM HEPES-containing Hanks' balanced salt solution (HBSS) in equal proportions. To the cells from which the culture solution is removed, 200 μl of the loading solution was added, and the cells were cultured in a CO2 incubator for 1 hour. The subject compound was diluted with a 20 mM HEPES-containing HBSS and was added to the cells by 50 μL, and the change in the Ca^2+ concentration was measured with an intracellular ion analyzer. The EC50 value of the subject compound was calculated using the dose-response curve of fluorescence intensity variation.

T1 sequence (O14842 whole entry): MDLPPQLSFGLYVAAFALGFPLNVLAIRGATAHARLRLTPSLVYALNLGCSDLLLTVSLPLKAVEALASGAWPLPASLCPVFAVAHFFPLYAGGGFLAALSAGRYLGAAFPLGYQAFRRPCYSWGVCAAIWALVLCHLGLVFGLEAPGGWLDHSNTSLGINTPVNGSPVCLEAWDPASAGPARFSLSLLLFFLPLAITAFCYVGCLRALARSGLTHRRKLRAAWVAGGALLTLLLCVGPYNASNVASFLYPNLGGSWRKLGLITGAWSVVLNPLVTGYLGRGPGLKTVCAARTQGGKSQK

Row | SMILES | pEC50
1 | COc1ccc(C)cc1-c1cccc2c1CC[C@H]2Oc1ccc(-c2cc(O)n[s+]2[O-])cc1 (stereo partly drawn) [Example 45, 5-(4-(((R)-4-(2-methoxy-5-methylphenyl)-2,3-dihydro-1H-inden-1-yl)oxy)phenyl)-3-hydroxyisothiazole 1-oxide] | > 6.52
2 | CCOc1ccc(-c2cccc3c2CC[C@H]3Oc2ccc(-c3cc(O)n[s+]3[O-])cc2)cc1Cl (stereo partly drawn) [Example 60, 5-(4-(((R)-4-(3-chloro-4-ethoxyphenyl)-2,3-dihydro-1H-inden-1-yl)oxy)phenyl)-3-hydroxyisothiazole 1-oxide] | > 6.52
3 | COc1cc(Cl)cc(-c2cccc3c2CC[C@H]3Oc2ccc(-c3cc(O)n[s+]3[O-])cc2)c1 (stereo partly drawn) [Example 14, 5-(4-(((R)-4-(3-chloro-5-methoxyphenyl)-2,3-dihydro-1H-inden-1-yl)oxy)phenyl)-3-hydroxyisothiazole 1-oxide] | > 6.52
4 | CC(C)(C)c1ccc(-c2cccc3c2CC[C@H]3Oc2ccc(-c3cc(O)n[s+]3[O-])cc2)cc1 (stereo partly drawn) [Example 33, 5-(4-(((R)-4-(4-tert-butylphenyl)-2,3-dihydro-1H-inden-1-yl)oxy)phenyl)-3-hydroxyisothiazole 1-oxide] | 5.52 to 6.52
5 | CC(C)c1ccccc1-c1cccc2c1CC[C@H]2Oc1ccc(-c2cc(O)n[s+]2[O-])cc1 (stereo partly drawn) [Example 34, 5-(4-(((R)-4-(2-isopropylphenyl)-2,3-dihydro-1H-inden-1-yl)oxy)phenyl)-3-hydroxyisothiazole 1-oxide] | 5.52 to 6.52
6 | [O-][s+]1nc(O)cc1-c1ccc(O[C@@H]2CCc3c(-c4cc(C(F)(F)F)ccc4F)cccc32)cc1 (stereo partly drawn) [Example 67, 5-(4-(((R)-4-(2-fluoro-5-trifluoromethylphenyl)-2,3-dihydro-1H-inden-1-yl)oxy)phenyl)-3-hydroxyisothiazole 1-oxide] | > 6.52
7 | COc1cccc(-c2cccc3c2CC[C@H]3Oc2ccc(-c3cc(O)n[s+]3[O-])cc2)c1 (stereo partly drawn) [Example 30, 5-(4-(((R)-4-(3-methoxyphenyl)-2,3-dihydro-1H-inden-1-yl)oxy)phenyl)-3-hydroxyisothiazole 1-oxide] | > 6.52
8 | [O-][s+]1nc(O)cc1-c1ccc(O[C@@H]2CCc3c(-c4ccc(Cl)cc4C(F)(F)F)cccc32)cc1 (stereo partly drawn) [Example 69, 5-(4-(((R)-4-(4-chloro-2-trifluoromethylphenyl)-2,3-dihydro-1H-inden-1-yl)oxy)phenyl)-3-hydroxyisothiazole 1-oxide] | 5.52 to 6.52
9 | [O-][s+]1nc(O)cc1-c1ccc(O[C@@H]2CCc3c(-c4cccc(C(F)(F)F)c4)cccc32)cc1 (stereo partly drawn) [Example 63, 5-(4-(((R)-4-(3-trifluoromethylphenyl)-2,3-dihydro-1H-inden-1-yl)oxy)phenyl)-3-hydroxyisothiazole 1-oxide] | 5.52 to 6.52
10 | COc1ccc(-c2cccc3c2CC[C@H]3Oc2ccc(-c3cc(O)n[s+]3[O-])cc2)c(OC)c1 (stereo partly drawn) [Example 49, 5-(4-(((R)-4-(2,4-dimethoxyphenyl)-2,3-dihydro-1H-inden-1-yl)oxy)phenyl)-3-hydroxyisothiazole 1-oxide] | > 6.52
11 | Cc1cccc(-c2cccc3c2CC[C@H]3Oc2ccc(-c3cc(O)n[s+]3[O-])cc2)c1 (stereo partly drawn) [Example 24, 5-(4-(((R)-4-(3-methylphenyl)-2,3-dihydro-1H-inden-1-yl)oxy)phenyl)-3-hydroxyisothiazole 1-oxide] | > 6.52
12 | [O-][s+]1nc(O)cc1-c1ccc(O[C@@H]2CCc3c(-c4ccc(F)cc4OCc4ccccc4)cccc32)cc1 (stereo partly drawn) [Example 61, 5-(4-(((R)-4-(2-benzyloxy-4-fluorophenyl)-2,3-dihydro-1H-inden-1-yl)oxy)phenyl)-3-hydroxyisothiazole 1-oxide] | 5.52 to 6.52
13 | [O-][s+]1nc(O)cc1-c1ccc(O[C@@H]2CCc3c(-c4ccc(Cl)cc4F)cccc32)cc1 (stereo partly drawn) [Example 16, 5-(4-(((R)-4-(4-chloro-2-fluorophenyl)-2,3-dihydro-1H-inden-1-yl)oxy)phenyl)-3-hydroxyisothiazole 1-oxide] | 5.52 to 6.52
14 | COc1ccc(F)c(-c2cccc3c2CC[C@H]3Oc2ccc(-c3cc(O)n[s+]3[O-])cc2)c1 (stereo partly drawn) [Example 53, 5-(4-(((R)-4-(2-fluoro-5-methoxyphenyl)-2,3-dihydro-1H-inden-1-yl)oxy)phenyl)-3-hydroxyisothiazole 1-oxide] | > 6.52
15 | [O-][s+]1nc(O)cc1-c1ccc(O[C@@H]2CCc3c(-c4ccccc4OC(F)(F)F)cccc32)cc1 (stereo partly drawn) [Example 65, 5-(4-(((R)-4-(2-trifluoromethoxyphenyl)-2,3-dihydro-1H-inden-1-yl)oxy)phenyl)-3-hydroxyisothiazole 1-oxide] | > 6.52
16 | COc1ccc(F)cc1-c1cccc2c1CC[C@H]2Oc1ccc(-c2cc(O)n[s+]2[O-])cc1 (stereo partly drawn) [Example 56, 5-(4-(((R)-4-(5-fluoro-2-methoxyphenyl)-2,3-dihydro-1H-inden-1-yl)oxy)phenyl)-3-hydroxyisothiazole 1-oxide] | > 6.52

The next lines start with the values.

Row | pEC50 | SMILES
17 | > 6.52 | CCOCCOc1cc(C)c(Oc2cccc3c2CC[C@H]3Oc2ccc(-c3cc(O)n[s+]3[O-])cc2)c(C)c1 (stereo partly drawn) [Example 108, 5-(4-(((R)-4-(4-(2-ethoxyethoxy)-2,6-dimethylphenoxy)-2,3-dihydro-1H-inden-1-yl)oxy)phenyl)-3-hydroxyisothiazole 1-oxide]
18 | > 6.52 | [O-][s+]1nc(O)cc1-c1ccc(OC2COc3c(Oc4ccccc4)cccc32)cc1 (single isomer, unassigned) [Example 145-a, 3-hydroxy-5-(4-((7-phenoxy-2,3-dihydrobenzofuran-3-yl)oxy)phenyl)isothiazole 1-oxide]
19 | > 6.52 | Cc1cccc(Oc2cccc3c2CC[C@H]3Oc2ccc(-c3cc(O)n[s+]3[O-])cc2)n1 (stereo partly drawn) [Example 130, 3-hydroxy-5-(4-(((R)-4-((6-methylpyridin-2-yl)oxy)-2,3-dihydro-1H-inden-1-yl)oxy)phenyl)isothiazole 1-oxide]
20 | > 6.52 | Cc1ccc(-c2cccc3c2CC[C@H]3Oc2ccc(-c3cc(O)n[s+]3[O-])cc2)cn1 (stereo partly drawn) [Example 71, 5-(4-(((R)-4-(6-methylpyridin-3-yl)-2,3-dihydro-1H-inden-1-yl)oxy)phenyl)-3-hydroxyisothiazole 1-oxide]
21 | > 6.52 | CCOCCOc1ccc(Oc2cccc3c2CC[C@H]3Oc2ccc(-c3cc(O)n[s+]3[O-])cc2)cn1 (stereo partly drawn) [Example 98, 5-(4-(((R)-4-((6-(2-ethoxyethoxy)pyridin-3-yl)oxy)-2,3-dihydro-1H-inden-1-yl)oxy)phenyl)-3-hydroxyisothiazole 1-oxide]
22 | > 6.52 | [O-][s+]1nc(O)cc1-c1ccc(O[C@@H]2CCc3c(Oc4cccc(CCO)c4)cccc32)cc1 (stereo partly drawn) [Example 89, 3-hydroxy-5-(4-(((R)-4-(3-(2-hydroxyethyl)phenoxy)-2,3-dihydro-1H-inden-1-yl)oxy)phenyl)isothiazole 1-oxide]
23 | > 6.52 | CNC(=O)c1ccc(Oc2cccc3c2CC[C@H]3Oc2ccc(-c3cc(O)n[s+]3[O-])cc2)cc1 (stereo partly drawn) [Example 136, 4-(((1R)-1-(4-(3-hydroxy-1-oxidoisothiazol-5-yl)phenoxy)-2,3-dihydro-1H-inden-4-yl)oxy)-N-methylbenzamide]
24 | > 6.52 | N#Cc1ccc(Oc2cccc3c2CC[C@H]3Oc2ccc(-c3cc(O)n[s+]3[O-])cc2)cc1 (single isomer, unassigned) [Example 83]
25 | > 6.52 | Cc1cccc(Oc2cccc3c2OCC3Oc2ccc(-c3cc(O)n[s+]3[O-])cc2)c1 (stereo not shown) [Example 155, 3-hydroxy-5-(4-((7-(m-tolyloxy)-2,3-dihydrobenzofuran-3-yl)oxy)phenyl)isothiazole 1-oxide]
26 | > 6.52 | Cc1ncccc1Oc1cccc2c1CC[C@H]2Oc1ccc(-c2cc(O)n[s+]2[O-])cc1 (stereo partly drawn) [Example 126, 3-hydroxy-5-(4-(((R)-4-((2-methylpyridin-3-yl)oxy)-2,3-dihydro-1H-inden-1-yl)oxy)phenyl)isothiazole 1-oxide]
27 | > 6.52 | [O-][s+]1nc(O)cc1-c1ccc(OCC2=CC3(CCCC3)CCC2)cc1 (stereo not shown) [Example 122, 3-hydroxy-5-(4-(spiro[4.5]dec-6-en-7-ylmethoxy)phenyl)isothiazole 1-oxide]
28 | > 6.52 | CC(=O)c1ccc(-c2cccc3c2CC[C@H]3Oc2ccc(-c3cc(O)n[s+]3[O-])cc2)s1 (stereo partly drawn) [Example 79, 1-(5-((1R)-1-(4-(3-hydroxy-1-oxidoisothiazol-5-yl)phenoxy)-2,3-dihydro-1H-inden-4-yl)thiophen-2-yl)ethanone]
29 | > 6.52 | COc1ncc(Oc2cccc3c2CC[C@H]3Oc2ccc(-c3cc(O)n[s+]3[O-])cc2)cn1 (stereo partly drawn) [Example 110, 3-hydroxy-5-(4-(((R)-4-((2-methoxypyrimidin-5-yl)oxy)-2,3-dihydro-1H-inden-1-yl)oxy)phenyl)isothiazole 1-oxide]
30 | > 6.52 | [O-][s+]1nc(O)cc1-c1ccc(O[C@@H]2CCc3c(Oc4ccsc4)cccc32)cc1 (stereo partly drawn) [Example 111, 3-hydroxy-5-(4-(((R)-4-(thiophen-3-yloxy)-2,3-dihydro-1H-inden-1-yl)oxy)phenyl)isothiazole 1-oxide]
31 | > 6.52 | Cc1cccc(Oc2cccc3c2CC[C@H]3Oc2ccc(-c3cc(O)n[s+]3[O-])cc2)c1 (stereo partly drawn) [Example 94, 3-hydroxy-5-(4-(((R)-4-(m-tolyloxy)-2,3-dihydro-1H-inden-1-yl)oxy)phenyl)isothiazole 1-oxide]
